Results reported in US20240336615A1, “CYCLOPROPYL-(HETERO)ARYL-SUBSTITUTED ETHYL-SULFOXIME-PYRIDINE DERIVATIVES” (Boehringer Ingelheim Vetmedica GmbH, priority 2023, published 2024).
Values belong to the compound of their own block, whether it stands above or below them.

How the values were obtained:
Plutella xylostella = test: Insecticidal test on Plutella xylostella (Example 15); type: in vivo; conditions: 144 h, Chinese cabbage seedling dip, 6 days after dip treatment, read-out: activity level (corrected mortality rate)
Protocol: The compounds of formula (I), (Ia) and/or (Ib) of the present invention or salts thereof are separately dispersed in water and diluted to 500 ppm and 50 ppm. Ten adults of Plutella xylostella are released onto Chinese cabbage seedlings and allowed to lay eggs thereon. 2 days after the release of the adults, the seedling is dipped in the dispersion for about 30 seconds. After air dried, the seedling is kept in a room at 25° C. 6 days after the dip treatment, the numbers of the dead and alive insects are counted. The corrected mortality rate is calculated according to the following formula and the insecticidal activity is evaluated according to the following criteria.

[1] = system: adult Ctenocephalides felis fleas; test: Contact activity against adult Ctenocephalides felis (Example 4); conditions: adult C. felis, coated pipe cleaner in vial, 72 hours post-treatment, read-out: EC50 (contact activity, percentage mortality)
Protocol: Compounds of formulae (I), (Ia) and/or (Ib) dissolved in 100% DMSO are diluted in acetone to a desired concentration. The resulting formulation is used to coat the fibers of a 0.5-inch-long piece of pipe cleaner placed in a glass scintillation vial. The vial is capped with a rubber gasket and filter paper insert. After the acetone has evaporated, ten adult Ctenocephalides felis fleas are added to each vial. The vials are then incubated at 22° C., 80% relative humidity, and 12 hours of light/12 hours of dark until a visual evaluation for mortality is performed at 72 hours post-treatment. Compound efficacy at a given dose is expressed as percentage mortality and adjusted to remove background mortality observed in control vials containing DMSO only. A dose response series of treated vials is implemented to determine EC50 values.

Spodoptera litura = test: Insecticidal test on Spodoptera litura (Example 14); type: in vivo; conditions: foliar, 192 h, cabbage leaf dip, 2nd-instar larvae, 8 days after inoculation, read-out: activity level (corrected mortality rate)
Protocol: The compounds of formula (I), (Ia) and/or (Ib) of the present invention or salts thereof are separately dispersed in water and diluted to 500 ppm and 50 ppm. Cabbage leaves are dipped in the dispersion for about 30 seconds. After air dried, the leaves are placed in a plastic Petri dish with a diameter of 9 cm and inoculated with ten 2nd-instar larvae of Spodoptera litura, after which the dish is closed and then allowed to stand in a room at 25° C. 8 days after the inoculation, the numbers of the dead and alive insects are counted. The corrected mortality rate is calculated according to the following formula and the insecticidal activity is evaluated according to the following criteria.
[formula] [formula] • A: the corrected mortality rate is 100% • B: the corrected mortality rate is 90 to 99% • C: the corrected mortality rate is 80 to 89% • D: the corrected mortality rate is 50 to 79%

Myzus persicae = test: Insecticidal test on Myzus persicae (Example 17); type: in vivo; conditions: 144 h, foliar application on Chinese cabbage, 6 days after application, read-out: control efficacy level (control rate)
Description: The compounds of formula (I), (Ia) and/or (Ib) of the present invention or salts thereof are separately dispersed in water and diluted to 500 ppm and 50 ppm. Chinese cabbage plants are planted in plastic pots (diameter: 8 cm, height: 8 cm). Aphids (Myzus persicae) are propagated on the plants and then the number of surviving aphids is counted. The dispersion is applied to the foliage of the potted plants. After the plants are air dried, these are kept in a greenhouse. 6 days after the application, the number of the alive insects is counted on the plants. The control rate is calculated according to the following formula and the control efficacy is evaluated according to the following criteria. [formula] • Ta: the number of alive insects before the foliar application in a treated plot • T: the number of alive insects after the foliar application in a treated plot • Ca: the number of alive insects before the foliar application in an untreated plot • C: the number of alive insects after the foliar application in an untreated plot • A: the control rate is 100% • B: the control rate is 90 to 99% • C: the control rate is 80 to 89% • D: the control rate is 50 to 79%

[2] = system: adult R. sanguineus ticks; test: Contact activity against adult Rhipicephalus sanguineus (Example 5); conditions: coated vials, 48 hours post-treatment, read-out: EC50 (contact activity, percentage mortality)
Protocol: Compounds of formulae (I), (Ia) and/or (Ib) formulated in 100% DMSO are diluted in a solution containing acetone and Triton X-100 (0.02%). The resulting formulation is used to coat the inner walls of glass scintillation vials and the filter paper covering the cap of the vial. Once dried, ten adult R. sanguineus ticks are added to the vials. The vials are incubated at 24° C., 95% relative humidity, and 12 hours of light/12 hours of dark until evaluation. Ticks are visually evaluated for mortality at 48 hours post-treatment. Compound efficacy at a given dose is expressed as percentage mortality. A dose response series is implemented to determine EC50 values.

adult C. felis fleas [3] = test: Ingestion activity against adult Ctenocephalides felis, membrane feeding, alternative method (Examples 7 and 13); conditions: Ctenocephalides felis
Protocol: Selected compounds of formula (I), (Ia) and (Ib) and compound “125” of WO 2021/033141 dissolved in 100% DMSO are diluted in bovine blood with sodium heparin anti-coagulant. The resulting formulation is offered via an artificial membrane feeding system to approximately 15 adult C. felis fleas previously dispensed into 24-well plates. The plates are then incubated in a double-chambered device. Visual evaluation for mortality is performed at 48 hours post-treatment. Compound efficacy at a given dose is expressed as percentage mortality and determined by normalization to positive and negative controls. A dose response series is implemented to determine EC50 values.
Compounds of formulae (I), (Ia) and/or (Ib) dissolved in 100% DMSO are diluted in bovine blood with sodium heparin anti-coagulant. The resulting formulation is offered via an artificial membrane feeding system to approximately 15 adult C. felis fleas previously dispensed into 24-well plates. The plates are then incubated in a double-chambered device. Visual evaluation for mortality is performed at 48 hours post-treatment. Compound efficacy at a given dose is expressed as percentage mortality and determined by normalization to positive and negative controls. A dose response series is implemented to determine EC50 values.

adult C. felis fleas [4] = test: Ingestion activity against adult Ctenocephalides felis, membrane feeding, motility (Example 6); conditions: 48 h, bovine blood via artificial membrane, 48h post treatment, read-out: EC50 (ingestion activity, % motility reduction)
Protocol: Compounds of formulae (I), (Ia) and/or (Ib) dissolved in 100% DMSO are added to bovine blood and offered via an artificial membrane feeding system to adult C. felis fleas. The motility of fleas is then visually inspected 48h post treatment. Efficacy is expressed in % motility reduction compared to controls containing blood treated with DMSO only. A dose response series is implemented to determine EC50 values.

Laodelphax striatellus = test: Insecticidal test on Laodelphax striatellus (Example 16); type: in vivo; conditions: 192 h, rice seedling dip, 3rd-instar nymphs, 8 days after inoculation, read-out: activity level (corrected mortality rate)
Protocol: The compounds of formula (I), (Ia) and/or (Ib) of the present invention or salts thereof are separately dispersed in water and diluted to 500 ppm and 50 ppm. Rice plant seedlings are dipped in the dispersion for about 30 seconds. After air dried, the seedlings are put into a separate glass test tube and inoculated with ten 3rd-instar nymphs of Laodelphax striatellus and then the glass test tube is kept in a room at 25° C. 8 days after the inoculation, the numbers of the dead and alive insects are counted. The corrected mortality rate is calculated according to the following formula and the insecticidal activity is evaluated according to the following criteria.

[5] = adult C. felis, bovine blood with sodium heparin, membrane feeding, 48 hours post-treatment, read-out: EC50 (ingestion activity, percentage mortality, alternative method)
[6] = alternative method according to Example 7, mortality at 48 hours post-treatment, read-out: C. felis membrane feeding (ingestion/blood feeding) activity EC50

SMILES: CCS(=N)(=O)c1cc(-c2noc(C3(C(F)(F)F)CC3)n2)cnc1-c1nc2cc(C(F)(F)C(F)(F)F)cnc2n1C (centres unmarked) [Compound 3]
mortality at 50 ppm (Plutella xylostella): 100%
EC50 [1]: < 10 µM
mortality at 50 ppm (Spodoptera litura): 100%
pest or weed control at 50 ppm (Myzus persicae; 50 ppm): 100%
EC50 [2]: 10 to 100 µM
EC50 (adult C. felis fleas [3]; [5]): < 1000 nM
EC50 (adult C. felis fleas [3]; [6]): 448 nM
EC50 (adult C. felis fleas [4]): < 1000 nM
mortality at 50 ppm (Laodelphax striatellus): 100%

SMILES: CCS(=N)(=O)c1cc(-c2noc(C3(F)CC3)n2)cnc1-c1nc2cc(C(F)(F)C(F)(F)F)cnc2n1C (centres unmarked) [Compound 5]
mortality at 500 ppm (Plutella xylostella): 100%
EC50 [1]: < 10 µM
mortality at 500 ppm (Spodoptera litura): 100%
pest or weed control at 500 ppm (Myzus persicae): 100%
EC50 [2]: 10 to 100 µM
EC50 (adult C. felis fleas [3]; [5]): 1000 to 10000 nM
EC50 (adult C. felis fleas [3]; [6]): 1080 nM
EC50 (adult C. felis fleas [4]): 1000 to 10000 nM
mortality at 500 ppm (Laodelphax striatellus): 100%

Continued, in another order:

EC50 (adult C. felis fleas [4]): 1000 to 10000 nM
SMILES: CCS(=N)(=O)c1cc(-c2noc(C3CC3)n2)cnc1-c1nc2cc(C(F)(F)C(F)(F)F)nnc2n1C (centres unmarked) [Compound 8]
mortality at 500 ppm (Plutella xylostella): 100%
EC50 [1]: < 10 µM
pest or weed control at 500 ppm (Myzus persicae): 100%
EC50 [2]: 10 to 100 µM
EC50 (adult C. felis fleas [3]; [5]): < 1000 nM
EC50 (adult C. felis fleas [3]; [6]): 643 nM
mortality at 500 ppm (Laodelphax striatellus): 100%

EC50 (adult C. felis fleas [4]): < 1000 nM
SMILES: CCS(=N)(=O)c1cc(-c2cc(C3CC3)no2)cnc1-c1nc2cc(C(F)(F)C(F)(F)F)cnc2n1C (centres unmarked) [Compound 19]
mortality at 500 ppm (Plutella xylostella): 100%
EC50 [1]: < 10 µM
mortality at 500 ppm (Spodoptera litura): 100%
pest or weed control at 500 ppm (Myzus persicae): 100%
EC50 [2]: 10 to 100 µM
EC50 (adult C. felis fleas [3]; [5]): 1000 to 10000 nM
mortality at 500 ppm (Laodelphax striatellus): 100%

EC50 (adult C. felis fleas [4]): < 1000 nM
SMILES: CCS(=N)(=O)c1cc(-c2cc(C3CC3)ns2)cnc1-c1nc2cc(C(F)(F)C(F)(F)F)cnc2n1C (centres unmarked) [Compound 20]
mortality at 50 ppm (Plutella xylostella): 100%
EC50 [1]: < 10 µM
mortality at 50 ppm (Spodoptera litura): 100%
EC50 [2]: 10 to 100 µM
EC50 (adult C. felis fleas [3]; [5]): 1000 to 10000 nM
mortality at 50 ppm (Laodelphax striatellus): 100%
